Assay results: US20120070451A1, “METHODS AND COMPOSITIONS FOR MODULATING CARDIAC CONTRACTILITY” (Consiglio Nazionale Delle Ricerche, priority 2009, published 2012)
Each block holds one compound with its values, some of them ahead of it. Residues, ends and D or L forms follow the SMILES beside them. *: point of attachment. Cbz = O=C(OCc1ccccc1)*

Legend:
Cavα1 = assay: Western blot of YFP-Cavα1 in transfected COS-7 cells treated with Akt inhibitor and degradation-system inhibitors; assay type: cell-based
Protocol: FIG. 3. Akt mediates regulation of Cavα1 protein density at the plasma membrane. (A) RT-PCR analysis of Cavα1 mRNA expression from WT and KO ventricular extracts. GADPH serves as loading control. (B) Western blot analysis of whole lysate, membrane, and microsomal fractions from WT and KO ventricular extracts. (C) YFP-Cavα1 transfected COS-7 cells alone or in combination with Cavβ2-expression vector were serum-starved and treated with Akt inhibitor and 1 μM bafilomycin-A1, 25 μM MG132, or 25 μM calpeptin. 6 h post drug administration, cell lysates were prepared and subjected to Western blot analysis for YFP. GAPDH served as a loading control. (D-E) Cavα1 protein levels in KO cardiomyocytes infected with empty (mock) or active E40K-Akt (AdAkt) expressing adenoviral vector (D) and in whole lysates of WT and E40K-Akt (Tg Akt) hearts (E). Representative experiments are shown (n=4).
However, since the amount of Cavα1 was reduced in both microsomal and membrane fractions from KO extracts compared to WT (FIG. 3B), we hypothesized that the reduced Cavα1 level observed in KO mice was due to enhanced protein degradation in addition to impaired protein translocation to the plasma membrane. To assess the pathway involved in the Akt-dependent Cavα1 protein degradation, three sets of specific cell degradation system inhibitors were examined for their ability to prevent the decrease in Cavα1 protein elicited by Akt inhibition. […] Similar results were obtained by inhibiting calpain, the intracellular, Ca^2+-dependent cysteine protease known to be involved in membrane protein degradation (Belles et al., 1988; Romanin et al., 1991).
Cell transfection was performed in serum-starved medium using LipoFectamine2000 (Invitrogen) according to the manufacturer's instructions. 5 μM Akt-XI inhibitor (Calbiochem), insulin (Sigma), 1 μM bafilomycin-A 1 (Sigma), 25 μM MG132 (Calbiochem), and 25 μM Calpeptin (Calbiochem) were used as described. […]
Proteins expression was evaluated in total lysates or cell fractions by Western blot analysis according to standard procedures. […]

Cavα1 C-terminal domain = assay: GST pull-down in vitro binding assay; details: for Interaction with Cavα1 C-terminal domain: 35S-methionine-labeled C-Cavα1 (aa 1477-2169)
From the text: FIG. 7. Rapid-protein-degradation PEST sequences determine Cavα1 protein instability. (A) Schematic representation of Cavα1 mapping the α1-interacting domain (AID) and PEST sequences in the I-II and II-III cytosolic loops. Deleted PEST sequences (P, H) are highlighted in red. (B) Western blot and immunofluorescence analyses showing relative levels of WT and PEST deleted mutants of YFP-Cavα1 (n=3). Bar represents 5 μm. (C) Wild-type Cavα1 subunit (alone or cotransfected with Cavβ2SE) and its in-frame ΔPEST mutants (Cavα1-ΔP and Cavα1-ΔH) half-lives were determined in COST cells. After overnight starvation, transfected cells were pulse-chased and analyzed along a time course (*P<0.001 compared to Cavα1, ANOVA; n=3). (D) Western blot and immunofluorescence analyses showing relative levels of WT GFP and N-terminal fusion PEST mutants (n=3). Bar represents 20 μm. (E) The Cavα1 C-terminus interacts with the Akt-phosphorylated-GST-Cavβ2 coiled coil region. Bacterially expressed GST or GST-C-Cavβ2 (Cavβ2: aa 480-655) fusion protein and glutathione sepharose beads were incubated with equal amounts of in vitro translated [^35S] methionine-labeled C-Cavα1 (Cavα1: aa 1477-2169). […] Bound proteins were resolved by SDS-PAGE (4-12%). 10% of the input protein in each binding reaction is shown. Coomassie staining of SDS-PAGE is shown in the bottom panel. (F) Ca^2+ currents recorded in tsA-201 cells cotransfected with Cavβ2-WT and either Cavα1-WT or Cavα1-ΔH and cultivated for 36 h in the presence or absence of fetal bovine serum (10%). Current densities (pA/pF) are normalized to the control condition. n>35 at each condition, (*P<0.05 compared to Cavα1, ANOVA). […]
Affinity-purified GST-fusion proteins were generated using a pGEX system (Amersham) and phosphorylated as described below. […] Bound proteins were eluted in SDS sample buffer, subjected to SDS-PAGE, and detected by autoradiography. […]

Cavα1 currents = assay: Whole-cell patch clamp Ca2+ current (ICa,L) in cotransfected tsA-201 cells with or without serum; assay type: cell-based; details: cotransfection with Cavα1; 36 h
Protocol: FIG. 6. Akt phosphorylation of Cavβ2 preserves Cavα1 currents. Ca^2+ currents recorded in cotransfected tsA-201 cells with YFP-Cavα1 and either Cavβ2-WT, Cavβ2-SE, or Cavβ2-SA mutant, cultivated for 36 h in the presence or absence of fetal bovine serum (10%). Currents were recorded 1-2 minutes after the whole-cell configuration was achieved (i.e. after stabilization of the current) and were elicited by a 0 mV depolarization of 200 ms duration applied from a holding potential of −80 mV. Currents are normalized to cell capacitance (Current density, pA/pF). Representative current traces are shown. n>35 at each condition, (*P<0.05 compared to YFP-Cavα1, ANOVA).
FIG. 7. […] (C) Wild-type Cavα1 subunit (alone or cotransfected with Cavβ2SE) and its in-frame ΔPEST mutants (Cavα1-ΔP and Cavα1-ΔH) half-lives were determined in COST cells. After overnight starvation, transfected cells were pulse-chased and analyzed along a time course (*P<0.001 compared to Cavα1, ANOVA; n=3). […] (F) Ca^2+ currents recorded in tsA-201 cells cotransfected with Cavβ2-WT and either Cavα1-WT or Cavα1-ΔH and cultivated for 36 h in the presence or absence of fetal bovine serum (10%). […]
Macroscopic Ice, was recorded at room temperature (˜22° C.) using the whole-cell patch clamp technique in native cells as previously described (Aimond et al., 2005; Maier et al., 2003). […]

[1] = Cavα1 and Cavβ2 cotransfected cells, 1 μM bafilomycin-A1, 25 μM MG132 or 25 μM calpeptin, 6 h

Compound: CC(C)C[C@@H](C=O)NC(=O)[C@H](CC(C)C)NC(=O)[C@H](CC(C)C)NC(=O)OCc1ccccc1 [MG132] (Cbz-Leu-Leu-Leu-aldehyde)
Cavα1 protein decrease induced by Akt inhibition (Cavα1; [1]): failed to protect Cavα1 from protein degradation

Compound: CO/C1=C\C(C)=C\[C@@H](C)[C@@H](O)[C@@H](C)C/C(C)=C/C=C/[C@H](OC)[C@@H]([C@@H](C)[C@@H](O)[C@H](C)[C@@]2(O)C[C@@H](O)[C@H](C)[C@@H](C(C)C)O2)OC1=O [bafilomycin-A1]
Cavα1 protein decrease induced by Akt inhibition (Cavα1; [1]): prevented the decrease in Cavα1 protein induced by Akt inhibition | Cavα1 protein decrease induced by Akt inhibition (Cavα1; absence of Cavβ2 cotransfection): protection effect was abolished

Interaction with Cavα1 C-terminal domain (Cavα1 C-terminal domain): direct interaction took place | Interaction with Cavα1 C-terminal domain (Cavα1 C-terminal domain; listed as Akt-phosphorylated GST-C-Cavβ2): Binding occurred | Interaction with other Cavα1 cytosolic domains (Cavα1 C-terminal domain; data not shown): No interactions were found
Compound: Akt-phosphorylated Cavβ2 C-terminal coiled coil region: bacterially expressed GST-C-Cavβ2 (Cavβ2: aa 480-655) fusion protein phosphorylated by recombinant Akt

Compound: Cavβ2-WT: wild-type Ca2+ beta2 channel accessory subunit
ICa,L in serum-free medium compared to serum-containing medium (Cavα1 currents): significant depressed ICa,L
